“And” between values parts separate entries of the source, which are not always exact repeats. Identical values can stand only once.
Key:
[1] = system: MCF-7 breast carcinoma cell line; assay: MTT cytotoxic activity against MCF-7 breast carcinoma cell line; format: cell-based; conditions: Homo sapiens, MCF7; MTT assay, MCF-7 cells, 24 h incubation
Procedure: Cytotoxic activity of the synthesized acrylate derivatives 5a–6i was evaluated against the MCF-7 breast carcinoma cell line using the MTT colorimetric assay. CA-4 was included as a positive control. The results were summarized as IC50 values in Table 1.
Antiproliferative activity of the constructed acrylate molecules 5a–6i was determined on MCF-7 cell line as reported previously.[38] See ESI Appendix A. ^† […]
(§1) S4.2.1. Cytotoxic activity evaluation
To measure the cytotoxic actvity of the synthesized acrylate derivatives 5a,b and 6a-i in breast cancer (MCF-7) cell line. Cell viability assay was assessed using MTT assay method. Cells at density of 1 x 104 were seeded in a 96-well plate at 37 °C for 24 h under 5% CO2. After incubation, the cells were treated with different concentrations of the test acrylate derivatives 5a-6i and incubated for 24 h, then 20 µl of MTT solution at 5 mg/mL was applied and incubated for 4 h at 37 °C. Dimethyl sulphoxide (DMSO) in volume of 100 µl was added to each well to dissolve the purple formazan that had formed. The color intensity of the formazan product, which represents the growth condition of the cells, is quantified by using an ELISA plate reader (EXL 800, USA) at 570 nm absorbance. The experimental conditions were carried out with at least three replicates, and the experiments were repeated at least three times. […]

Bax = assay: qRT-PCR gene expression of Bax in MCF-7 cells; format: cell-based; conditions: 2.57 μM, 48 h
From the text: (§2) p53, Bax and Bcl-2 play a key role in controlling intrinsic mitochondrial cellular death.[36] […] During the apoptotic process, these mediators have opposing effects. p53 and Bax have proapoptotic impacts, while Bcl-2 has anti-apoptotic effects. […] This assay utilized the quantitative real time reverse transcriptase PCR (qRT-PCR) assay. […] On the other hand, compound 6e decreased the level of anti-apoptotic gene Bcl-2 level by 0.38-fold less than untreated cells.
(§3) The MCF-7 cell line was used for measurement of the expression levels of Apoptotic markers. […]
(§4) S4.2.5. qRT-PCR measurements of p53, Bax and Bcl2 for compound 6e
(§5) Real-time PCR for p53, BAX and Bcl-2 genes expression was done using commercial Qiagen RNA extraction/ BioRad SYBER green PCR master mix according manufacturer's instructions. Briefly, 2 µl of cDNA template, 10 pMol of each forward and reverse primer, 10 µl of 2X Master Mix and to 20 µl total reaction mixture volume by nuclease free water and then was introduced to thermal cycler instrument (Thermo Scientific, USA). The cycling parameters for the PCR amplification were achieved by initial denaturation at 95 °C for 3 minutes followed by 40 cycles of 94 °C for 15 seconds and annealing/extension step at 60 °C for 1 min. Relative quantification of target genes was run on Rotor-Gene 6000 Series Software 1.7 (Build […]
(§6) Table 1: The primer sequences for Real Time PCR assay

[2] = system: MCF-7 breast carcinoma cells; assay: Flow cytometric cell cycle analysis of MCF-7 cells; format: cell-based; conditions: 2.57 μM, 48 h
Procedure: The MCF-7 cell line was used for cell cycle analysis. Assay was carried out as reported previously.[39] See ESI Appendix A. ^† […]
as §1
To measure the cytotoxic actvity of the synthesized acrylate derivatives 5a,b and 6a-i in breast cancer (MCF-7) cell line. Cell viability assay was assessed using MTT assay method. Cells at density of 1 x 104 were seeded in a 96-well plate at 37 °C for 24 h under 5% CO2. After incubation, the cells were treated with different concentrations of the test acrylate derivatives 5a-6i and incubated for 24 h, then 20 µl of MTT solution at 5 mg/mL was applied and incubated for 4 h at 37 °C. Dimethyl sulphoxide (DMSO) in volume of 100 µl was added to each well to dissolve the purple formazan that had formed. The color intensity of the formazan product, which represents the growth condition of the cells, is quantified by using an ELISA plate reader (EXL 800, USA) at 570 nm absorbance. The experimental conditions were carried out with at least three replicates, and the experiments were repeated at least three times.
(§7) S4.2.2. Tubulin polymerization Assay
Compound 6e and CA-4 were evaluated for their tubulin inhibitory activity according to manufacturer’s instructions using # abcam Human Beta-tubulin simplestep ELISA […]
(§8) S4.2.3. Cell cycle analysis of compound 6e
Cell cycle analysis in MCF-7 cells was investigated using fluorescent Annexin V-FITC/ PI detection kit (BioVision EZCellTM Cell Cycle Analysis Kit Catalog #K920) by flow cytometry assay. MCF-7 cells at a density of 2 × 10^5 per well were harvested and washed twice in PBS. After that, the cells were incubated at 37 °C and 5% CO2.
The medium was incubated with the tested compound 6e at ita IC50 (µM) for 48 h, washed twice in PBS, fixed with 70% ethanol, rinsed again with PBS. Afterward, medium was stained with DNA fluorochrome PI for 15 min at 37 °C. The samples were immediately analyzed using Facs Calibur flow cytometer (Becton and Dickinson, Heidelberg, Germany).
S4.2.4. Apoptosis assay for compound 6e […]

β-tubulin = target: T1, β-tubulin (Homo sapiens, UniProt P07437); assay: β-tubulin polymerization inhibition in MCF-7 cells (Human Beta-tubulin SimpleStep ELISA kit); format: cell-based; conditions: 48 h; for β-tubulin polymerization inhibition percentage: at IC50 concentration
T1 construct: utilizing MCF-7 breast carcinoma cells; endogenous in cells; host or cells: MCF-7 breast carcinoma cells
T1 sequence (P07437 whole entry): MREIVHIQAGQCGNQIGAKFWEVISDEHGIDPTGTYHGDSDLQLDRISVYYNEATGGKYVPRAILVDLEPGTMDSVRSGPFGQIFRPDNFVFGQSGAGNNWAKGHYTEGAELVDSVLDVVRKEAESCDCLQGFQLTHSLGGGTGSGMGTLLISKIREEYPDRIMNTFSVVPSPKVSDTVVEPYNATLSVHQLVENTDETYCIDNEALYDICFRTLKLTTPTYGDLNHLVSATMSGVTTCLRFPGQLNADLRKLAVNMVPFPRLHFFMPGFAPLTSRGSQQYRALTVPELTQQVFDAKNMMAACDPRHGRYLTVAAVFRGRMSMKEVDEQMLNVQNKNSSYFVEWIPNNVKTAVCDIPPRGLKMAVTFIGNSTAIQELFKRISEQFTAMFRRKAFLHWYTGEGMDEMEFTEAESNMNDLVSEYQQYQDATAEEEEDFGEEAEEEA
T1 sequence (P68363 whole entry partner): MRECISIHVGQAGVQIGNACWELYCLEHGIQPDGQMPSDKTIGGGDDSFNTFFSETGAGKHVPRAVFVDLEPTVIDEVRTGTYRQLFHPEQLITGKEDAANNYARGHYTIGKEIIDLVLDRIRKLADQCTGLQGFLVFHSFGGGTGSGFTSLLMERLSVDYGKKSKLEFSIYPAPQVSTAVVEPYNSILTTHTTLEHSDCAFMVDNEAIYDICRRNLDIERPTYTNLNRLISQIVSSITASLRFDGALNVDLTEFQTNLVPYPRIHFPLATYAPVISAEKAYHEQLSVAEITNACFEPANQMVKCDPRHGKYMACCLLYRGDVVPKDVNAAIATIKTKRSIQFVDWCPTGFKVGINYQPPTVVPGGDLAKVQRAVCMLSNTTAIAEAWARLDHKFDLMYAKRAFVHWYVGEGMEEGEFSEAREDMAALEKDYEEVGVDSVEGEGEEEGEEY
From the text: The disruption of the cellular microtubule structure and, more importantly, microtubule function that result from inhibiting β-tubulin polymerization leads to the triggering of cellular apoptosis.[30,31] Inhibition of tubulin polymerization has been identified as a possible therapeutic target for the creation of new cancer therapies.[32]
as §1
(§9) To measure the cytotoxic actvity of the synthesized acrylate derivatives 5a,b and 6a-i in breast cancer (MCF-7) cell line. Cell viability assay was assessed using MTT assay method. Cells at density of 1 x 104 were seeded in a 96-well plate at 37 °C for 24 h under 5% CO2. After incubation, the cells were treated with different concentrations […]
(§10) solution at 5 mg/mL was applied and incubated for 4 h at 37 °C. Dimethyl sulphoxide (DMSO) in volume of 100 µl was added to each well to dissolve the purple formazan that had formed. The color intensity of the formazan product, which represents the growth condition of the cells, is quantified by using an ELISA plate reader (EXL 800, USA) at 570 nm absorbance. The experimental conditions were carried out with at least three replicates, and the experiments were repeated at least three times.
as §7

MCF-10A = assay: MTT cytotoxic activity against MCF-10A cells; format: cell-based; conditions: Homo sapiens, MTT assay
p53 = assay: qRT-PCR gene expression of p53 in MCF-7 cells; format: cell-based; conditions: 2.57 μM, 48 h
From the text: as §2, §3, §4, §5, §6

Bcl-2 = assay: qRT-PCR gene expression of Bcl-2 in MCF-7 cells; format: cell-based; conditions: 2.57 μM, 48 h
From the text: as §2, §3, §4, §5, §6

Bax/Bcl-2 = Bax/Bcl-2 ratio from qRT-PCR in MCF-7 cells; format: cell-based; conditions: 2.57 μM, 48 h
From the text: as §2, §3, §4, §5, §6

[3] = system: MCF-7 breast carcinoma cells; assay: Annexin V-FITC/PI apoptosis assay in MCF-7 cells; format: cell-based; conditions: 2.57 μM, 48 h
Procedure: as §1, §9, §10
S4.2.2. Tubulin polymerization Assay […]
to manufacturer’s instructions using # abcam Human Beta-tubulin simplestep ELISA […]
as §8
Cell cycle analysis in MCF-7 cells was investigated using fluorescent Annexin V-FITC/ PI detection kit (BioVision EZCellTM Cell Cycle Analysis Kit Catalog #K920) by flow cytometry assay. MCF-7 cells at a density of 2 × 10^5 per well were harvested and washed twice in PBS. […]
immediately analyzed using FACS Calibur flow cytometer (Becton and Dickinson, […]

SMILES | melting point [°C] | IC50 [1] [µM] | also measured
COc1ccc(C(=O)N/C(=C\c2ccc(OC)c(OC)c2OC)C(=O)O)cc1OC [5a, (Z)-2-(3,4-Dimethoxybenzamido)-3-(2,3,4-trimethoxyphenyl)acrylic acid] | 201 to 203 | 9.31 ± 0.35 | 
COc1cc(C(=O)N/C(=C\c2ccc(OC)c(OC)c2OC)C(=O)O)cc(OC)c1OC [5b, (Z)-2-(3,4,5-Trimethoxybenzamido)-3-(2,3,4-trimethoxyphenyl)acrylic acid] | 217 to 219 | 5.12 ± 0.32 | 
COC(=O)/C(=C/c1ccc(OC)c(OC)c1OC)NC(=O)c1ccc(OC)c(OC)c1 [6a, (Z)-Methyl 2-(3,4-dimethoxybenzamido)-3-(2,3,4-trimethoxyphenyl)acrylate] | 177 to 179 | 6.74 ± 0.78 | 
CCOC(=O)/C(=C/c1ccc(OC)c(OC)c1OC)NC(=O)c1ccc(OC)c(OC)c1 [6b, (Z)-Ethyl 2-(3,4-dimethoxybenzamido)-3-(2,3,4-trimethoxyphenyl)acrylate] | 154 to 156 | 17.1 ± 0.49 | 
CCCOC(=O)/C(=C/c1ccc(OC)c(OC)c1OC)NC(=O)c1ccc(OC)c(OC)c1 [6c, (Z)-Propyl 2-(3,4-dimethoxybenzamido)-3-(2,3,4-trimethoxyphenyl)acrylate] | 119 to 121 | 20.3 ± 0.44 | 
CCCCOC(=O)/C(=C/c1ccc(OC)c(OC)c1OC)NC(=O)c1ccc(OC)c(OC)c1 [6d, (Z)-Butyl 2-(3,4-dimethoxybenzamido)-3-(2,3,4-trimethoxyphenyl)acrylate] | 132 to 134 | 42.1 ± 0.96 | 
COC(=O)/C(=C/c1ccc(OC)c(OC)c1OC)NC(=O)c1cc(OC)c(OC)c(OC)c1 [6e, (Z)-Methyl 2-(3,4,5-trimethoxybenzamido)-3-(2,3,4-trimethoxyphenyl)acrylate] |  | 2.57 ± 0.16 | Bax gene expression level, fold relative to untreated control cells (Bax): 3.99 fold; cell population in G2/M phase ([2]; control 8.20%): 29.96%; cell population in S phase ([2]; control 26.88%): 22.06%; cell population in G1 phase ([2]; control 54.92%): 47.98%; fold decrease in the level of β-tubulin polymerization compared to untreated control cells (β-tubulin; 2.57 μM): 5.73 fold; β-tubulin polymerization inhibition percentage (β-tubulin): 81.16%; IC50 (MCF-10A): 19.1 ± 0.31 µM; p53 gene expression level, fold relative to untreated control cells (p53): 6.18 fold; Bcl-2 gene expression level, fold relative to untreated cells (decrease) (Bcl-2): 0.38 fold; increase of the ratio of Bax/Bcl-2 compared to untreated cells (Bax/Bcl-2): 10.5 fold; late stage apoptotic cells ([3]; control 0.24%): 23.28%; early stage apoptotic cells ([3]; control 0.38%): 14.55%
COc1ccc(/C=C\c2cc(OC)c(OC)c(OC)c2)cc1O [CA-4, combretastatin A-4, reference compound] |  | 1.25 ± 0.08 | β-tubulin polymerization inhibition percentage (β-tubulin): 89.17% and 82.82%; IC50 (MCF-10A): 13.2 ± 0.19 µM

More lines, main results first:

melting point [°C] | SMILES | IC50 [1] [µM] | also measured
127 to 129 | CCOC(=O)/C(=C/c1ccc(OC)c(OC)c1OC)NC(=O)c1cc(OC)c(OC)c(OC)c1 [6f, (Z)-Ethyl 2-(3,4,5-trimethoxybenzamido)-3-(2,3,4-trimethoxyphenyl)acrylate] | 3.26 ± 0.21 | 
111 to 113 | CCCOC(=O)/C(=C/c1ccc(OC)c(OC)c1OC)NC(=O)c1cc(OC)c(OC)c(OC)c1 [6g, (Z)-Propyl 2-(3,4,5-trimethoxybenzamido)-3-(2,3,4-trimethoxyphenyl)acrylate] | 11.3 ± 0.75 | 
105 to 107 | COc1cc(C(=O)N/C(=C\c2ccc(OC)c(OC)c2OC)C(=O)OC(C)C)cc(OC)c1OC [6h, (Z)-Isopropyl 2-(3,4,5-trimethoxybenzamido)-3-(2,3,4-trimethoxyphenyl)acrylate] | 7.08 ± 0.29 | 
118 to 120 | CCCCOC(=O)C(=Cc1ccc(OC)c(OC)c1OC)NC(=O)c1cc(OC)c(OC)c(OC)c1 [6i, Butyl 2-(3,4,5-trimethoxybenzamido)-3-(2,3,4-trimethoxyphenyl)acrylate] | 33 ± 1.03 | 

— article PMC10402871, “Design, synthesis and antiproliferative screening of newly synthesized acrylate derivatives as potential anticancer agents” (RSC Advances, 2023)
